Where two headings read alike, the source gives them in different places.
How the values were obtained:
[1] = clinical; details: human, in vivo; for AUC(0-inf): read-out: AUCINF_obs; for Cmax: read-out: Cmax
Experimental: For single-dose PK parameters, plasma samples were taken at pre-dose and 0.5 h, 1 h, 2 h, 3 h, 4 h, 6 h, 8 h, 12 h, 24 h, 48 h, 72 h, 96 h, 120 h, 144 h, and 168 h post-dose in PK lead-in phase of dose-escalation phase, and plasma samples were also taken at pre-dose and 0.5 h, 1 h, 2 h, 3 h, 4 h, 6 h, 8 h, 12 h, and 24 h post-dose in cycle 1 day 1 of dose-expansion phase. During continuous dosing, serial plasma samples were collected at pre-dose in cycle 1 day 15, pre-dose in cycle 1 day 22, pre-dose and 0.5 h, 1 h, 2 h, 3 h, 4 h, 6 h, 8 h, 12 h, and 24 h post-dose in cycle 1 day 28 for all dose cohorts. The following PK parameters were assessed: area under the concentration-time curve from the time of dosing extrapolated to infinity, based on the last observed concentration (AUCINF_obs); area under the concentration-time curve from the time of dosing to the time of last observation (AUClast); maximum concentration (Cmax); time to maximum concentration (Tmax); elimination half-life (T1/2); and mean residence time from the time of dosing to the time of the last measurable concentration (MRTlast).

[2] = biological target: ALK F1174L (Homo sapiens, UniProt Q9UM73, F1174L); experiment: ALK enzymatic IC50, F1174L; type: biochemical
Excerpt: Supplement 12916_2022_2646_MOESM1_ESM.docx, table 1 | column: ALK Enzymatic IC50 (nM)

[3] = cycle 1 day 28 of dose-escalation phase, 600 mg (n=7), mean
[4] = cycle 1 day 28 of dose-escalation phase, 800 mg (n=2), mean
[5] = single dose, PK lead-in phase of dose-escalation phase, 50 mg (n=2), mean
[6] = single dose, PK lead-in phase of dose-escalation phase, 100 mg (n=3), mean
[7] = single dose, PK lead-in phase of dose-escalation phase, 200 mg (n=3), mean
[8] = single dose, PK lead-in phase of dose-escalation phase, 300 mg (n=3), mean
[9] = single dose, PK lead-in phase of dose-escalation phase, 450 mg (n=4), mean
[10] = single dose, PK lead-in phase of dose-escalation phase, 600 mg (n=7), mean
[11] = single dose, PK lead-in phase of dose-escalation phase, 800 mg (n=3), mean

COc1cc(N2CCC(N3CCN(C)CC3)CC2)ccc1Nc1nc2c(c(Nc3ccccc3S(=O)(=O)NC(C)C)n1)CCN2 [Conteltinib] showed a Tmax ([1]; cycle 1 day 28 of dose-escalation phase, 450 mg (n=3), mean, read-out: Tmax) of 4.3 h, an AUC(0-t) [1, 3] of 14000 ng·h/mL and an MRT last [1, 3] of 10.8 h. The AUC(0-inf) [1, 3] was 53800 ng·h/mL, the Cmax [1, 3] was 985 ng/mL and the half-life ([1]; cycle 1 day 28 of dose-escalation phase, 600 mg (n=7), mean, read-out: T1/2 (converted)) was 45 h. For the same molecule, the Tmax ([1]; cycle 1 day 28 of dose-escalation phase, 600 mg (n=7), mean, read-out: Tmax) was 2.5 h, the AUC(0-t) [1, 4] was 5500 ng·h/mL and the MRT last [1, 4] was 11.6 h. It also gave an AUC(0-inf) [1, 4] of 27200 ng·h/mL, a Cmax [1, 4] of 305 ng/mL and a half-life ([1]; cycle 1 day 28 of dose-escalation phase, 800 mg (n=2), mean, read-out: T1/2 (converted)) of 52.7 h. It also gave a Tmax ([1]; cycle 1 day 28 of dose-escalation phase, 800 mg (n=2), mean, read-out: Tmax) of 3.5 h, a half-life ([1]; multiple-dose administration, read-out: mean T1/2 across dose cohorts) of 26.3 to 352 h and a Tmax ([1]; multiple-dose administration, read-out: mean Tmax across dose cohorts) of 1.5 to 4.3 h. The AUC(0-t) [1, 5] was 125 ng·h/mL, the MRT last [1, 5] was 8.1 h and the AUC(0-inf) [1, 5] was 206 ng·h/mL. The Cmax [1, 5] was 16.3 ng/mL, the half-life ([1]; single dose, PK lead-in phase of dose-escalation phase, 50 mg (n=2), mean, read-out: T1/2 (converted)) was 22.5 h and the Tmax ([1]; single dose, PK lead-in phase of dose-escalation phase, 50 mg (n=2), mean, read-out: Tmax) was 2 h. The AUC(0-t) [1, 6] was 732 ng·h/mL, the MRT last [1, 6] was 30.3 h and the AUC(0-inf) [1, 6] was 1050 ng·h/mL. For the same molecule, the Cmax [1, 6] was 69 ng/mL, the half-life ([1]; single dose, PK lead-in phase of dose-escalation phase, 100 mg (n=3), mean, read-out: T1/2 (converted)) was 90.2 h and the Tmax ([1]; single dose, PK lead-in phase of dose-escalation phase, 100 mg (n=3), mean, read-out: Tmax) was 2.8 h. The AUC(0-t) [1, 7] was 2550 ng·h/mL, the MRT last [1, 7] was 47.4 h and the AUC(0-inf) [1, 7] was 3110 ng·h/mL. The Cmax [1, 7] was 140 ng/mL, the half-life ([1]; single dose, PK lead-in phase of dose-escalation phase, 200 mg (n=3), mean, read-out: T1/2 (converted)) was 83.5 h and the Tmax ([1]; single dose, PK lead-in phase of dose-escalation phase, 200 mg (n=3), mean, read-out: Tmax) was 2.7 h. It also gave an AUC(0-t) [1, 8] of 4340 ng·h/mL, an MRT last [1, 8] of 46.2 h and an AUC(0-inf) [1, 8] of 5110 ng·h/mL. The Cmax [1, 8] was 246 ng/mL, the half-life ([1]; single dose, PK lead-in phase of dose-escalation phase, 300 mg (n=3), mean, read-out: T1/2 (converted)) was 78.5 h and the Tmax ([1]; single dose, PK lead-in phase of dose-escalation phase, 300 mg (n=3), mean, read-out: Tmax) was 2.5 h. It also gave an AUC(0-t) [1, 9] of 9880 ng·h/mL, an MRT last [1, 9] of 40.5 h and an AUC(0-inf) [1, 9] of 11500 ng·h/mL. The Cmax [1, 9] was 544 ng/mL, the half-life ([1]; single dose, PK lead-in phase of dose-escalation phase, 450 mg (n=4), mean, read-out: T1/2 (converted)) was 78.7 h and the Tmax ([1]; single dose, PK lead-in phase of dose-escalation phase, 450 mg (n=4), mean, read-out: Tmax) was 3.3 h. It also gave an AUC(0-t) [1, 10] of 9640 ng·h/mL, an MRT last [1, 10] of 43.3 h and an AUC(0-inf) [1, 10] of 11200 ng·h/mL. The Cmax [1, 10] was 452 ng/mL, the half-life ([1]; single dose, PK lead-in phase of dose-escalation phase, 600 mg (n=7), mean, read-out: T1/2 (converted)) was 78.7 h and the Tmax ([1]; single dose, PK lead-in phase of dose-escalation phase, 600 mg (n=7), mean, read-out: Tmax) was 3.9 h. It also gave an AUC(0-t) [1, 11] of 9820 ng·h/mL, an MRT last [1, 11] of 42 h and an AUC(0-inf) [1, 11] of 11200 ng·h/mL. For the same molecule, the Cmax [1, 11] was 421 ng/mL, the half-life ([1]; single dose, PK lead-in phase of dose-escalation phase, 800 mg (n=3), mean, read-out: T1/2 (converted)) was 77.2 h and the Tmax ([1]; single dose, PK lead-in phase of dose-escalation phase, 800 mg (n=3), mean, read-out: Tmax) was 3.7 h. The half-life ([1]; single-dose administration, read-out: mean T1/2 across dose cohorts) was 16.7 to 90.2 h, the Tmax ([1]; single-dose administration, read-out: mean Tmax across dose cohorts) was 2 to 4.6 h and the MRT last ([1]; cycle 1 day 28 of dose-expansion phase, 600 mg (n=10), mean) was 10.9 h. It also gave a half-life ([1]; single dose, cycle 1 day 1 of dose-expansion phase, 450 mg (n=10), mean, read-out: T1/2 (converted)) of 23.4 h and an IC50 [2] of 4.3 nM.
